Earlier results on 28 molecules are cited in paper PMC10323144, “Garbage in, garbage out: how reliable training data improved a virtual screening approach against SARS-CoV-2 MPro” (Frontiers in Pharmacology, 2023).

The structures appear in SMILES notation.

The data set has as its system MPro. As to conditions: compiled from peer-reviewed sources (287 compounds) ref the 18 original articles; cited from earlier work.
As to `CCOC(=O)c1c(CSc2ccccc2)n(C)c2cc(Br)c(O)c(CN(C)C)c12` [Umifenovir], the “Class (MPro activity class)” value is listed as 0 (compounds with IC50 > 20 μM, percentage inhibition <80% at 20 µM or 50 μM, or percentage enzyme inhibition <50% at 10 µM were labelled as INACTIVE).
Take `Cc1cc(Cn2nnc3c(-c4ccco4)nc(N)nc32)ccc1N` [VIPADENANT]: the “Class (MPro activity class)” value is reported as 0 (compounds with IC50 > 20 μM, percentage inhibition <80% at 20 µM or 50 μM, or percentage enzyme inhibition <50% at 10 µM were labelled as INACTIVE).
Regarding `CCn1c(=O)c(-c2cc[nH]n2)cc2c(C)nc(N)nc21` [VOXTALISIB], the “Class (MPro activity class)” value is given as 0 (compounds with IC50 > 20 μM, percentage inhibition <80% at 20 µM or 50 μM, or percentage enzyme inhibition <50% at 10 µM were labelled as INACTIVE).
On to `C[C@H](NC(=O)/C(C#N)=C/c1cccc(Br)n1)c1ccccc1` [WP1066], for which the “Class (MPro activity class)” value is on record as 0 (compounds with IC50 > 20 μM, percentage inhibition <80% at 20 µM or 50 μM, or percentage enzyme inhibition <50% at 10 µM were labelled as INACTIVE).
For `COc1c(O)cc(O)c2c(=O)cc(-c3ccccc3)oc12` [Wogonin], the “Class (MPro activity class)” value is recorded as 0 (compounds with IC50 > 20 μM, percentage inhibition <80% at 20 µM or 50 μM, or percentage enzyme inhibition <50% at 10 µM were labelled as INACTIVE).
Take `COc1c(O[C@@H]2O[C@H](C(=O)O)[C@@H](O)[C@H](O)[C@H]2O)cc(O)c2c(=O)cc(-c3ccccc3)oc12` [Wogonoside]: the “Class (MPro activity class)” value is given as 0 (compounds with IC50 > 20 μM, percentage inhibition <80% at 20 µM or 50 μM, or percentage enzyme inhibition <50% at 10 µM were labelled as INACTIVE).
For the molecule `CC(NC(=O)C(Cc1ccccc1)NC(=O)OCc1ccccc1)C(=O)CF` (stereo not shown) [Z-FA-FMK], the “Class (MPro activity class)” value is recorded as 0 (compounds with IC50 > 20 μM, percentage inhibition <80% at 20 µM or 50 μM, or percentage enzyme inhibition <50% at 10 µM were labelled as INACTIVE).
As for `CC(C)C[C@H](NC(=O)[C@H](Cc1ccccc1)NC(=O)c1cnccn1)B(O)O` [bortezomib], the “Class (MPro activity class)” value is listed as 0 (compounds with IC50 > 20 μM, percentage inhibition <80% at 20 µM or 50 μM, or percentage enzyme inhibition <50% at 10 µM were labelled as INACTIVE).
Consider `CC(C)C[C@H](NC(=O)[C@H](CCc1ccccc1)NC(=O)CN1CCOCC1)C(=O)N[C@@H](Cc1ccccc1)C(=O)N[C@@H](CC(C)C)C(=O)[C@@]1(C)CO1` [carfilzomib], for which the “Class (MPro activity class)” value is recorded as 0 (compounds with IC50 > 20 μM, percentage inhibition <80% at 20 µM or 50 μM, or percentage enzyme inhibition <50% at 10 µM were labelled as INACTIVE).
For the molecule `CC(C)c1nc(CN(C)C(=O)N[C@@H](CCN2CCOCC2)C(=O)N[C@H](CC[C@H](Cc2ccccc2)NC(=O)OCc2cncs2)Cc2ccccc2)cs1` [cobicistat], the “Class (MPro activity class)” value is on record as 1 (Compounds with IC50 < 10 µM or with a percentage of enzyme inhibition >50% at 10 µM were labelled as ACTIVE).
With `N#Cc1ccccc1-c1cc(-c2cccc(Cl)c2)c(=O)n(-c2cccnc2)c1` [compound 2], the “Class (MPro activity class)” value is 1 (Compounds with IC50 < 10 µM or with a percentage of enzyme inhibition >50% at 10 µM were labelled as ACTIVE).
Take `N#Cc1ccccc1-c1cc(-c2cc(Cl)cc(Cl)c2)c(=O)n(-c2cccnc2)c1` [compound 4]: the “Class (MPro activity class)” value is 1 (Compounds with IC50 < 10 µM or with a percentage of enzyme inhibition >50% at 10 µM were labelled as ACTIVE).
With `COCCOc1cc(Cl)cc(-c2cc(-c3ccccc3C#N)cn(-c3cccnc3)c2=O)c1` [compound 6], the “Class (MPro activity class)” value was 1 (Compounds with IC50 < 10 µM or with a percentage of enzyme inhibition >50% at 10 µM were labelled as ACTIVE).
In the case of `N#Cc1ccccc1-c1cc(-c2cc(Cl)cc(OCc3ccccc3)c2)c(=O)n(-c2cccnc2)c1` [compound 7], the “Class (MPro activity class)” value is on record as 1 (Compounds with IC50 < 10 µM or with a percentage of enzyme inhibition >50% at 10 µM were labelled as ACTIVE).
Regarding `N#Cc1ccccc1-c1cc(-c2cc(Cl)cc(OCCc3ccccc3)c2)c(=O)n(-c2cccnc2)c1` [compound 8], the “Class (MPro activity class)” value was 1 (Compounds with IC50 < 10 µM or with a percentage of enzyme inhibition >50% at 10 µM were labelled as ACTIVE).
Consider `CCCOc1cc(Cl)cc(-c2cc(-c3ccccc3C#N)cn(-c3cncnc3)c2=O)c1` [compound 9], for which the “Class (MPro activity class)” value is reported as 1 (Compounds with IC50 < 10 µM or with a percentage of enzyme inhibition >50% at 10 µM were labelled as ACTIVE).
Take `COc1cc(Cl)cc(-c2cc(-c3c[nH]c(=O)[nH]c3=O)cn(-c3cccnc3)c2=O)c1` [compound 10]: the “Class (MPro activity class)” value is listed as 1 (Compounds with IC50 < 10 µM or with a percentage of enzyme inhibition >50% at 10 µM were labelled as ACTIVE).
As for `CCCOc1cc(Cl)cc(-c2cc(-c3c[nH]c(=O)[nH]c3=O)cn(-c3cccnc3)c2=O)c1` [compound 11], the “Class (MPro activity class)” value was 1 (Compounds with IC50 < 10 µM or with a percentage of enzyme inhibition >50% at 10 µM were labelled as ACTIVE).
For the molecule `O=C(C=Cc1ccccc1)NC(CC1CCCCC1)C(=O)NC(CC1CCNC1=O)C(=O)C(=O)NCc1ccccc1` (stereo not shown) [compound 11r], the “Class (MPro activity class)” value is listed as 1 (Compounds with IC50 < 10 µM or with a percentage of enzyme inhibition >50% at 10 µM were labelled as ACTIVE).
On to `CCCCOc1cc(Cl)cc(-c2cc(-c3c[nH]c(=O)[nH]c3=O)cn(-c3cccnc3)c2=O)c1` [compound 12], for which the “Class (MPro activity class)” value is given as 1 (Compounds with IC50 < 10 µM or with a percentage of enzyme inhibition >50% at 10 µM were labelled as ACTIVE).
In the case of `CCCCCOc1cc(Cl)cc(-c2cc(-c3c[nH]c(=O)[nH]c3=O)cn(-c3cccnc3)c2=O)c1` [compound 13], the “Class (MPro activity class)” value was 1 (Compounds with IC50 < 10 µM or with a percentage of enzyme inhibition >50% at 10 µM were labelled as ACTIVE).
Take `CC(C)(C)OC(=O)Nc1cccn(C(CC2CC2)C(=O)NC(CC2CCNC2=O)C(=O)C(=O)NC2CC2)c1=O` (stereo not shown) [compound 13b]: the “Class (MPro activity class)” value is given as 1 (Compounds with IC50 < 10 µM or with a percentage of enzyme inhibition >50% at 10 µM were labelled as ACTIVE).
As to `O=c1[nH]cc(-c2cc(-c3cc(Cl)cc(OCc4ccccc4)c3)c(=O)n(-c3cccnc3)c2)c(=O)[nH]1` [compound 14], the “Class (MPro activity class)” value is reported as 1 (Compounds with IC50 < 10 µM or with a percentage of enzyme inhibition >50% at 10 µM were labelled as ACTIVE).
On to `O=c1[nH]cc(-c2cc(-c3cc(Cl)cc(OCCc4ccccc4)c3)c(=O)n(-c3cccnc3)c2)c(=O)[nH]1` [compound 15], for which the “Class (MPro activity class)” value was 1 (Compounds with IC50 < 10 µM or with a percentage of enzyme inhibition >50% at 10 µM were labelled as ACTIVE).
In the case of `Cc1ccccc1COc1cc(Cl)cc(-c2cc(-c3c[nH]c(=O)[nH]c3=O)cn(-c3cccnc3)c2=O)c1` [compound 16], the “Class (MPro activity class)” value was 1 (Compounds with IC50 < 10 µM or with a percentage of enzyme inhibition >50% at 10 µM were labelled as ACTIVE).
In the case of `Cc1cccc(COc2cc(Cl)cc(-c3cc(-c4c[nH]c(=O)[nH]c4=O)cn(-c4cccnc4)c3=O)c2)c1` [compound 17], the “Class (MPro activity class)” value is 1 (Compounds with IC50 < 10 µM or with a percentage of enzyme inhibition >50% at 10 µM were labelled as ACTIVE).
For the molecule `O=c1[nH]cc(-c2cc(-c3cc(Cl)cc(OCc4ccccc4F)c3)c(=O)n(-c3cccnc3)c2)c(=O)[nH]1` [compound 18], the “Class (MPro activity class)” value is 1 (Compounds with IC50 < 10 µM or with a percentage of enzyme inhibition >50% at 10 µM were labelled as ACTIVE).
Turning to `O=c1[nH]cc(-c2cc(-c3cc(Cl)cc(OCc4cccc(F)c4)c3)c(=O)n(-c3cccnc3)c2)c(=O)[nH]1` [compound 19], the “Class (MPro activity class)” value is 1 (Compounds with IC50 < 10 µM or with a percentage of enzyme inhibition >50% at 10 µM were labelled as ACTIVE).
